The values below come from patent publication US9145402B2, “Aminopyrimidine derivatives as LRRK2 modulators” (Genentech, Inc., priority 2011, dated 2015).

Chain of LRRK2 (Q5S007 970-2527 G2019S): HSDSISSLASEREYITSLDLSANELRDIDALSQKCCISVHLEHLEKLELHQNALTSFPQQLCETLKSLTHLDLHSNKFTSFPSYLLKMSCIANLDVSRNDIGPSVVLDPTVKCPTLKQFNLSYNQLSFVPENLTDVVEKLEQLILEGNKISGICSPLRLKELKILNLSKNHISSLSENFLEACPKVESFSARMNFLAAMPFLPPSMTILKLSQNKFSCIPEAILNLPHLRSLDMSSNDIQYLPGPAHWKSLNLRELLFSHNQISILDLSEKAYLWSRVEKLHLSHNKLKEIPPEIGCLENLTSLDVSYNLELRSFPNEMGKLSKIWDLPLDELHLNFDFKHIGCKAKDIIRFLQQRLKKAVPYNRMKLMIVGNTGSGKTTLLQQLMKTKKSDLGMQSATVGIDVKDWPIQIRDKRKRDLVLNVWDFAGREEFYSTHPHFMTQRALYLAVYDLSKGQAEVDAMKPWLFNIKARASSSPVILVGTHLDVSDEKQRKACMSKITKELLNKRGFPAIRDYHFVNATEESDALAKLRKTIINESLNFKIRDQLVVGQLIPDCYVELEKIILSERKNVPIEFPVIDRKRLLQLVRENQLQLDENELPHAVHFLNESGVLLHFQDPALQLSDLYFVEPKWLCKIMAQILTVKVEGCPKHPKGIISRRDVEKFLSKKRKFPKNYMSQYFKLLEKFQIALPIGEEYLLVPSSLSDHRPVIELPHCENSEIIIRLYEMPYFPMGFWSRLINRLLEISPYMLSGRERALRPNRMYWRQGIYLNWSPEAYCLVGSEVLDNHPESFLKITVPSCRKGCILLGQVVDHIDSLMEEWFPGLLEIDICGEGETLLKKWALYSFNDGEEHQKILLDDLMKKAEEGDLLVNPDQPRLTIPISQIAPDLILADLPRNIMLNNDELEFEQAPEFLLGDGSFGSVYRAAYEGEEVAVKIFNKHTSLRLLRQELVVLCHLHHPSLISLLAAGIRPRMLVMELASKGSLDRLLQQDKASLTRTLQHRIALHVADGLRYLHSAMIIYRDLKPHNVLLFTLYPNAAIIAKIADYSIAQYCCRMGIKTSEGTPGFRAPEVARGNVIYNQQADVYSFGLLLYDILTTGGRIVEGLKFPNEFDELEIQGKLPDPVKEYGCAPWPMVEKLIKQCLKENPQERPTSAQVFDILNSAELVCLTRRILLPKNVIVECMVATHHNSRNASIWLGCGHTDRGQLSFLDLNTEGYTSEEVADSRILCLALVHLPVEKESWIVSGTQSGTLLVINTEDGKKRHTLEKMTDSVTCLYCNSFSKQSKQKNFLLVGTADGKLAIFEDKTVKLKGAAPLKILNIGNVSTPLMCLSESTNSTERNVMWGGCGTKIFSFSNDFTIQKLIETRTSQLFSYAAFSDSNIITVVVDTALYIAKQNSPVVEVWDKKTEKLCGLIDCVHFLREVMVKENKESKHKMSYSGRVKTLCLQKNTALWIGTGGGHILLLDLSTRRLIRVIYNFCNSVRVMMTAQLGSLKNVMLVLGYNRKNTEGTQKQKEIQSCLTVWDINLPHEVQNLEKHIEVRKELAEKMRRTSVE

For the assay, the target named is LRRK2 (Homo sapiens (Human), UniProt Q5S007, G2019S). Kind of assay: In Vitro LRRK2 LabChip Assay (LRRK2 Ki). It is filed as biochemical. How it is done:
In Vitro LRRK2 LabChip Assay
This assay was used to determine a compound's potency in inhibiting activity of LRRK2 by determining, Kiapp, IC50, or percent inhibition values. In a polypropylene plate, LRRK2, fluorescently-labeled peptide substrate, ATP and test compound were incubated together. Using a LabChip 3000 (Caliper Life Sciences), after the reaction the substrate was separated by capillary electrophoresis into two populations: phosphorylated and unphosphorylated. The relative amounts of each were quantitated by fluorescence intensity. LRRK2 Ki was determined according to the equation: Y=V0*(1−((x+Ki*(1+S/Km)+Et)/(2*Et)−(((x+Ki*(1+S/Km)+Et)^2−(4*Et*x))^0.5)/(2*Et))). Ki values in Table 4 and elsewhere herein are shown in μM.
Assay conditions and materials used were as follows:
Kinase reaction time: 2 hours
Wild type in 5 mM MgCl2: 80 μM
Solid Support: Black 50 μL volume polypropylene 384 well plate (MatriCal cat #MP101-1-PP)
Non-binding plate: 384 well clear V-bottom polypropylene plates (Greiner cat #781280).
ATP: 10 mM ATP (Cell Signaling cat #9804).
Coating Reagent #3: Coating Reagent #3 (Caliper).
Complete Reaction Buffer: H2O/25 mM Tris, pH 8.0/5 mM MgCl2/2 mM DTT/0.01% Triton X-100.
Stop Solution: H2O/100 mM HEPES, pH 7.2/0.015% Brij-35/0.2% Coating Reagent #3/20 mM EDTA.
Separation Buffer: H2O/100 mM HEPES, pH 7.2/0.015% Brij-35/0.1% Coating Reagent #3/1:200 Coating Reagent #8/10 mM EDTA/5% DMSO.
Compound Plate Preparation:
For serial dilutions, 34.6 μl DMSO was added to columns 3-24. For the assay controls, 37.5 μl DMSO was added to columns 1 and 2 of rows A and P. a,d and 50 μl 25 μM G-028831 (Staurosporine) was added to columns 1 and 2, row B. For the samples: to start at 100 μM, 37.5 μl DMSO was to columns 1 and 2, then 12.5 μl 10 mM compound; to start at 10 μM, 78 μl DMSO was added to columns 1 & 2, then 2 μl 10 mM compound; and to start at 1 μM, 25 μM compound (2 μl 10 mM cmpd+798 μl DMSO) was added to empty columns 1 and 2. A Precision instrument was used to perform 1:3.16 serial dilutions (“PLK_BM_serial_halflog”).
ATP was diluted to 282.1 μM in Complete Kinase Buffer (final concentration was 130 μM).
Total and Blank Preparation:
In Complete Reaction Buffer, substrate was diluted to 4 μM. Equal volumes of Complete Reaction Buffer and 4 μM substrate were combined to obtain the blank. Equal volumes of Complete Reaction Buffer and 4 μM substrate were combined and to the combined solution was added 2× final LRRK2 concentration.
To a 50 μl polypropylene plate, 5 μl/well buffer/substrate was added by hand to Blank wells. A Biomek FX was used to start the kinase reaction (“PLK SAR 23 ATP”). The following were added to the appropriate wells:
5 μl/well compound/ATP in Assay Plate;
5 μl/well kinase/substrate in Assay Plate;
The plate was incubated for 2 hours in the dark. Biomek FX was used to stop the kinase reaction (“PLK Stop”), and 10 μl/well Stop solution was added to the Assay Plate. Results were read on the LabChip 3000.
The LabChip 3000 was run using the job “LRRK2 IC50” with the following job settings:
Downstream voltage: −500 V
Upstream voltage: −2350 V
Post sample buffer sip time: 75 seconds
Post dye buffer sip time: 75 seconds
Final delay time: 200 seconds
Usually Ki stands for the equilibrium dissociation constant of an inhibitor or competing ligand from its target. Read a high Ki as weaker binding. For `CNc1nc(Nc2cc(F)c(N3CCOCC3=O)cc2OC)ncc1C(F)(F)F` [Example 31, 4-(2-fluoro-5-methoxy-4-(4-(methylamino)-5-(trifluoromethyl)pyrimidin-2-ylamino)phenyl)morpholin-3-one], the affinity corresponds to a Ki of 3 nM. In other words, the single-digit nanomolar range. For `CNc1nc(Nc2cc(F)c(N3CCCCC3=O)cc2OC)ncc1C(F)(F)F` [Example 32, 1-(2-fluoro-5-methoxy-4-(4-(methylamino)-5-(trifluoromethyl)pyrimidin-2-ylamino)phenyl)piperidin-2-one] the value was 5.5 nM; for `CNc1nc(Nc2cc(F)c(C3COC3)cc2OC)ncc1C(F)(F)F` [Example 33, N2-(5-fluoro-2-methoxy-4-(oxetan-3-yl)phenyl)-N4-methyl-5-(trifluoromethyl)pyrimidine-2,4-diamine], 3 nM; for `CCNc1nc(Nc2cc(C)c(S(C)(=O)=O)cc2OC)ncc1C(F)(F)F` [Example 34, N4-ethyl-N2-(2-methoxy-5-methyl-4-(methylsulfonyl)phenyl)-5-(trifluoromethyl)pyrimidine-2,4-diamine], 3 nM. As for `CCS(=O)(=O)c1cc(OC)c(Nc2ncc(C(F)(F)F)c(NC)n2)cc1C` [Example 35, N2-(4-(ethylsulfonyl)-2-methoxy-5-methylphenyl)-N4-methyl-5-(trifluoromethyl)pyrimidine-2,4-diamine], the figure is 3 nM. For `CNc1nc(Nc2cc(C)c(S(C)(=O)=O)cc2OC)ncc1C(F)(F)F` [Example 36, N2-(2-methoxy-5-methyl-4-(methylsulfonyl)phenyl)-N4-methyl-5-(trifluoromethyl)pyrimidine-2,4-diamine] the value was 3 nM. Regarding `CNc1nc(Nc2cc(F)c(CN3CCOCC3)cc2OC)ncc1C(F)(F)F` [Example 37, N2-(5-fluoro-2-methoxy-4-(morpholinomethyl)phenyl)-N4-methyl-5-(trifluoromethyl)pyrimidine-2,4-diamine], the Ki was 56 nM.

`CCNc1nc(Nc2ccc(S(C)(=O)=O)c3c2OCCO3)ncc1C(F)(F)F` [Example 38, N4-ethyl-N2-(8-(methylsulfonyl)-2,3-dihydrobenzo[b][1,4]dioxin-5-yl)-5-(trifluoromethyl)pyrimidine-2,4-diamine] gave a Ki of 3 nM.
